Results on 1 substance are retold here after patent US20240012012A1, “BIOMARKER AND TREATMENT FOR VASCULAR COGNITIVE IMPAIRMENT AND RELATED CONDITIONS” (priority 2020, published 2024).

One assay concerns TNFα. Description: Plasma cytokines, MILLIPLEX MAP Mouse High Sensitivity Multiplex Immunoassay. The format is in vivo. As to conditions: 50 μg/kg/day; values at or below assay threshold represented as 3.12. As for the experimental part: Mice were assigned randomly to the following treatment groups: Control-Saline (sham MI surgery, treated with saline), HF-treated (HF-PNA5, or HF-Ang-(1-7) with either 50 μg/kg/day, or 500 μg/kg/day), or HF-saline. Mice recovered for 5 weeks following MI before receiving 24 days of daily subcutaneous drug treatment. Within the last 3 days of injections, animals underwent Novel Object Recognition (NOR) testing (FIG. 6). […]
Cytokine concentrations were measured in the brain lysates and plasma samples by multiplex immunoassay using a MAGPIX Multiplexing Instrument and accompanying Multiplex Analyst software (MILLIPLEX MAP Mouse Cytokine/Chemokine Magnetic Bead Panel-Immunology Multiplex Assay; MCYTOMAG-70 K; Millipore Sigma, Burlington, Massachusetts). […] All samples were run in duplicate, and the results were analyzed using ANOVA and relevant post using GraphPad Prism9. To create a composite cytokine score, we calculated the z-scores for IL-2, IL-13, and IL-17 brain cytokines. […] The z-score was calculated for each cytokine using the following equation: […]

Assay [1] relates to neurofilament light protein (NFL). Description: Serum NFL quantification (Simoa NF-Light), murine heart failure model (Example 1). The format is in vivo, mouse. Conditions: 50 μg/kg/day and 500 μg/kg/day, relative to HF-saline. As for the experimental part:
Male C57Bl/6J adult mice (Harlan, 8-10 weeks old) were randomly assigned to either the sham control (n=12) or heart failure (HF) group (n=44). All mice prior to surgery were weighed and anesthetized. For the HF mice, myocardial infarction (MI) was induced by ligation of the left coronary artery (LCA). Under anesthesia (2.5% isoflurane in a mixture of air and 02) a thoracotomy was performed at the fourth left intercostal space and the LCA permanently ligated to induce a myocardial infarction (MI). Occlusion of the LCA was confirmed by observing blanching, a slight change in color of the anterior wall of the left ventricle downstream of the ligature. Sham mice underwent the same procedure with the exception of ligating the LCA.
Following 5 weeks post MI surgery, mice were treated for […] with daily subcutaneous injections as follows:
NFL Quantification: Immediately following the final NOR test, mice were sacrificed and serum samples were obtained for NFL quantification using the Simoa™ NF-Light® kit (Quanterix Cat #103186, Lot #501953), which quantifies neurofilament light (NFL). Assay samples were diluted 1:4 and calibrators were undiluted. As samples and calibrators were run in duplicate and analyzed using the HD-X Analyzer software package.

Assay [2] shares this test system. Description: Serum NFL levels in patients undergoing coronary artery bypass grafting (CABG). The format is in vivo, human. As to conditions: 200 μg/kg/day s.c. for 21 days, vs saline vehicle. The text has this: It is well documented that patients undergoing coronary artery bypass grafting (CABG) tend to experience post-surgical cognitive dysfunction. The present study elucidates the response in serum NFL levels to CABG and how that response may be modulated by Ang-(1-7) treatment. Potential CABG participants underwent a screening visit between 2 and 15 days prior to CABG surgery, including a full medical history and physical examination to rule out dementia (Mini-Mental State Exam score less than 25), and depression (Geriatric Depression Scale score greater than 10). Between 1 and 15 days prior to CABG surgery, participants underwent neuropsychological evaluation including memory testing and blood draws for clinical pathology assessment, NFL biomarker assessment. […] At 21 days post-surgery, additional blood samples were obtained, and serum NFL levels were measured.
The serum NFL concentration was measure in six subjects prior to CABG surgery and in 18 age-matched control subjects. […] Two subjects were administered saline vehicle control. […] Following surgery, serum NFL levels increased about four-fold in the patients treated with saline vehicle compared to pre-surgery level (p=0.0002).

Another assay relates to brain cytokines. Description: Whole brain lysate cytokines, MILLIPLEX MAP Mouse High Sensitivity Multiplex Immunoassay. The format is in vivo. On the procedure:
Mice were assigned randomly to the following treatment groups: Control-Saline (sham MI surgery, treated with saline), HF-treated (HF-PNA5, or HF-Ang-(1-7) with either 50 μg/kg/day, or 500 μg/kg/day), or HF-saline. Mice recovered for 5 weeks following MI before receiving 24 days of daily subcutaneous drug treatment. Within the last 3 days of injections, animals underwent Novel Object Recognition (NOR) testing (FIG. 6). Animal treatment groups were as listed: heart failure (HF)-saline treated n=15, (HF-Saline), Sham surgery-saline treated n=15 (Control-Saline), HF-Ang-(1-7) at 500 μg/kilogram body weight/day for 24 days (HF-A500) n=15, HF-Ang-(1-7) at 50 μg/kg body weight/day for 24 days (HF-A50) n=15, HF-PNA5 at 500 μg/kilogram body weight/day (HF-P500) n=15, HF-PNA5 at 50 μg/kilogram body weight/day (HF-P50) n=15. Following MI, up to 7 mice died within a group resulting in varying number of mice per group that were available to undergo treatment, NOR testing, and provide serum samples.
Mice were anesthetized with isoflurane and rapidly decapitated. Brains were separated from the skull and quickly cut into two hemispheres. The halves of the brain were then rapidly frozen in corning tubes in liquid nitrogen and stored at −80° C. One half of each brain was lysed using 1 mL RIPA buffer (1% Triton X-100, 0.1% SDS, 1×PBS) with protease (protease inhibitor cocktail 100× [Sigma P8340]) and phosphatase inhibitors (phosphatase inhibitor cocktail 100× [Sigma P5726]). Tissue was then sonicated using an ultrasonic cell disruptor at 30% 40% amplitude for 1 min. Samples were returned to ice in between sonication to prevent the tissue from warming. Samples were then centrifuged at 4° C. or 15 min at 13,000×g. The supernatant was collected and stored at −80° C. Total protein was measured in the range of […]. Brain lysates were used for multiplex immunoassays.
Cytokine concentrations were measured in the brain lysates and plasma samples by multiplex immunoassay using a MAGPIX Multiplexing Instrument and accompanying Multiplex Analyst software (MILLIPLEX MAP Mouse Cytokine/Chemokine Magnetic Bead Panel-Immunology Multiplex Assay; MCYTOMAG-70 K; Millipore Sigma, Burlington, Massachusetts). Simultaneous measurements of granulocyte colony-stimulating factor (GCSF), granulocyte-macrophage colony-stimulating factor, interferon, interleukin (IL)-1a, IL-1B, IL-2, IL-4, IL-5, IL-6, IL-7, IL-9, IL-10, IL-12 (p40), IL-12 (p70), IL-13, IL-15, IL-17, interferon-induced protein 10, chemokine (C-X-C motif) (CXC) ligand 1 (KC), chemokine (C-C motif) ligand (CCL) 2 (monocyte chemoattractant protein-1), CCL3 [macrophage inflammatory protein (MIP) 1a], CCL4 (MIP1b), CXC ligand 2 (MIP2), CCL5 [RANTES (regulated on activation normal T cell expressed and secreted)], and tumor necrosis factor-alpha (TNF-α) were captured. All samples were run in duplicate, and the results were analyzed using ANOVA and relevant post using GraphPad Prism9. To create a composite cytokine score, we calculated the z-scores for IL-2, IL-13, and IL-17 brain cytokines. Z-scores were then added to create a composite cytokine score. The z-score was calculated for each cytokine using the following equation: […]

In the case of “DRVYIHP [Ang-(1-7), Asp-Arg-Val-Tyr-Ile-His-Pro, Mas receptor agonist]”, in the assay with TNFα, the “plasma TNFα, mean” value turned out to be 3.12 pg/mL. Moreover, the “HF-induced increase in serum NFL levels” value in assay [1] was “reversed”. The “post-surgical increase in serum NFL” value in assay [2] was “significantly reduced that post-surgical increase”. For the same substance, in the assay with brain cytokines (50 ug/kg), the “brain IL-1α, mean ± SE” value is 95.6 ± 8.4 pg/mL; the “brain IL-10 (row head as printed; title says IP-10), mean ± SE” value came out at 42.2 ± 3.2 pg/mL; the “brain IL-17, mean ± SE” value was 44.1 ± 2.8 pg/mL. In the assay with brain cytokines (500 ug/kg), the “brain IL-1α, mean ± SE” value was 95.6 ± 5.5 pg/mL; the “brain IL-2, mean ± SE” value is 50.9 ± 1.9 pg/mL; the “brain IL-5, mean ± SE” value was 53.2 ± 2.7 pg/mL; the “brain IL-10 (row head as printed; title says IP-10), mean ± SE” value was 43.8 ± 4.2 pg/mL. The “brain IL-17, mean ± SE” value in the assay with brain cytokines (500 ug/kg) came to 42.0 ± 1.1 pg/mL. Also, the “brain lysate levels of IL-1α, IL-2, IL-5, IL-13, and IL-17 compared to HF-Saline” value in the assay on brain cytokines (A50 or A500 (50 or 500 ug/kg)) is listed as “significantly increased”.
